In patent publication US20220395500A1, “SMALL MOLECULE ACTIVATORS OF INTERFERON REGULATORY FACTOR 3 AND METHODS OF USE THEREOF” (Neuralexo, Inc., priority 2020, published 2022):

Columns and labels:
J774-Dual cytotoxicity = type: cell-based, mouse; conditions: mouse, J774-Dual cells, read-out: J774 cytotox CC50
Description: The OTRADI Small Molecule Library of approximately 246,000 diverse compounds (see below for description) was screened using the THP1-Dual based HTS platform described above. All transfer steps in the screen are fully automated, thus reducing variability. Primary screening included a single data point or dose for each molecule. After data normalization was applied for each assay run, “hit” selection was performed on the plates that pass the quality control (QC) criterion. Hits were defined as samples having values above the activity cutoff determined based on noise level of the assay to reduce false positive rates. […] The ratio of ISRE:NFκB activity was also calculated as a selectivity index for prioritizing hit selection. Primary hits underwent secondary screening to determine the 50% effective concentration (EC50) and 50% cytotoxic concentration (CC50) of these agents using an 8-point dose-response curve in the human THP1-Dual cells. Cytotoxicity was measured in the plate using Cell Titer Glo (Promega). Identified candidate compounds were further screened (orthogonal screen) for cross species activity in the validated mouse J774-Dual assay using an 8-point dose-response format to determine EC50 and CC50 values as well as ISRE:NFκB ratios. A general process flow for the experimental design laid out above is depicted at FIG. 12.

[1] = THP1-Dual cytotoxicity (Cell Titer Glo, ATP); type: cell-based, human; conditions: human, THP1-Dual cells, read-out: Thp1 cytotox CC50
Excerpt: FIG. 9C is a CC50 (50% cytotoxic concentration) graph of AV-C dependent IRF activation in THP1-Dual cells, determined with an 8-point dose response experiment. Cell viability was monitored based on quantitation of ATP present, as an indicator of metabolically active cells, where luminescence is proportional to the amount of ATP present, using Cell-Titer Glo (Promega).
The OTRADI Small Molecule Library of approximately 246,000 diverse compounds (see below for description) was screened using the THP1-Dual based HTS platform described above. All transfer steps in the screen are fully automated, thus reducing variability. Primary screening included a single data point or dose for each molecule. After data normalization was applied for each assay run, “hit” selection was performed on the plates that pass the quality control (QC) criterion. Hits were defined as samples having values above the activity cutoff determined based on noise level of the assay to reduce false positive rates. In the pilot study discussed above this activity value was >3σ above the ISRE mean with the added criteria of NFκB activation being lower than […] from the mean to identify IRF selective compounds. The ratio of ISRE:NFκB activity was also calculated as a selectivity index for prioritizing hit selection. Primary hits underwent secondary screening to determine the 50% effective concentration (EC50) and 50% cytotoxic concentration (CC50) of these agents using an 8-point dose-response curve in the human THP1-Dual cells. Cytotoxicity was measured in the plate using Cell Titer Glo (Promega). Identified candidate compounds were further screened (orthogonal screen) for cross species activity in the validated mouse J774-Dual assay using an 8-point dose-response format to determine EC50 and CC50 values as well as ISRE:NFκB ratios. A general process flow for the experimental design laid out above is depicted at FIG. 12.

Structure (SMILES) | CC50 (J774-Dual cytotoxicity; Mouse Reporter Cell Line) | CC50 ([1]; Human Reporter Cell Line) | CC50 (J774-Dual cytotoxicity; Mouse Reporter Cell Line J774) | CC50 ([1]; Human Reporter Cell Line THP1)
O=C(Nc1ccc(N2CCN(C(=O)c3ccc(Cl)cc3)CC2)cc1)c1ccc(OCc2ccccc2)cc1 [NA-45] | > 25 µM | 10.7 µM | – | –
Cc1cc2nc(-c3ccc(C)c(NC(=O)c4ccc(C(F)(F)F)c([N+](=O)[O-])c4)c3)oc2cc1C [ND-75] | – | – | > 25 µM | > 25 µM
Cc1ccc(-c2nc3cc(C(C)C)ccc3o2)cc1NC(=O)c1ccc(F)c([N+](=O)[O-])c1 [ND-54] | – | – | > 25 µM | 6.84 µM
COc1ccc(C(=O)Nc2cc(-c3nc4ccccc4s3)ccc2C)cc1C(F)(F)F [ND-87] | – | – | > 25 µM | 3.02 µM
COc1ccc(C(=O)Nc2ccc(Cl)c(-c3nc4cc(C)c(C)cc4o3)c2)cc1[N+](=O)[O-] [ND-45] | – | – | > 25 µM | 12.9 µM
Cc1cc(C(=O)Nc2cc(-c3nc4ccccc4s3)ccc2Cl)ccc1[N+](=O)[O-] [ND-51] | – | – | > 25 µM | 22.1 µM
CC(C)CC(=O)c1c(C(C)C)nn2ccccc12 [ND-97] | – | – | > 25 µM | > 25 µM
COc1ccc(S(=O)(=O)Nc2cc(-c3nc4cc(C)c(C)cc4o3)ccc2C)cc1[N+](=O)[O-] [ND-107] | – | – | > 10 µM | > 10 µM
O=C(Nc1ccc(N2CCN(C(=O)c3cccs3)CC2)cc1)c1ccccc1Br [NA-67] | > 10 µM | > 10 µM | – | –
Cc1cc2nc(-c3ccc(C)c(NC(=O)c4cc([N+](=O)[O-])ccc4Cl)c3)oc2cc1C [ND-33] | – | – | > 25 µM | > 25 µM
CCOc1ccc(C(=O)Nc2ccc(N3CCN(C(=O)c4cccs4)CC3)c(Cl)c2)cc1Br [NA-27] | > 25 µM | > 25 µM | – | –
O=C(Nc1ccc(-c2ccccc2)cc1)Nc1ccc(N2CCN(C(=O)c3cccs3)CC2)cc1 [NA-72] | > 10 µM | > 10 µM | – | –
O=C(Nc1ccc(N2CCN(C(=O)c3cccc(Cl)c3)CC2)cc1)c1ccc(OCc2ccccc2)cc1 [NA-48] | > 25 µM | > 25 µM | – | –
O=C(Nc1ccc(N2CCN(C(=O)c3cccs3)CC2)cc1)c1ccc(Oc2ccccc2)cc1 [NA-26] | > 25 µM | > 25 µM | – | –
CN(C)CCCOc1ccc(-c2nc3cc(OCCCN4CCCC4)ccc3o2)cc1 [ND-93] | – | – | > 25 µM | > 25 µM
ClCCCOc1ccc(-c2nc3ccc(OCCCCl)cc3o2)cc1 [ND-73] | – | – | > 25 µM | > 25 µM
O=C(Cc1cc(Br)cc(Br)c1)Nc1ccc(N2CCN(C(=O)c3cccs3)CC2)cc1 [NA-9] | > 25 µM | > 25 µM | – | –
O=C(Nc1ccc(N2CCN(C(=O)c3cccs3)CC2)cc1)c1cccc(Oc2ccccc2)c1 [NA-68] | > 10 µM | > 10 µM | – | –
COc1cccc(Cn2cc(CN3CCN(C(=O)c4cccs4)CC3)nn2)c1 [NA-57] | > 25 µM | > 25 µM | – | –
